Results: ChEMBL document CHEMBL1777796, “Synthesis and evaluation of carbaborane derivatives of indomethacin as cyclooxygenase inhibitors” (Bioorg Med Chem, 2011)

Assays:
[1] = molecular target: T1, Prostaglandin G/H synthase 2 (Mus musculus, UniProt Q05769); test: Inhibition of mouse COX2 assessed as conversion of [14C]-arachidonic acid to [14C]-prostaglandins preincubated for 17 mins by thin-layer chromatography analysis
T1 sequence (Q05769 whole entry): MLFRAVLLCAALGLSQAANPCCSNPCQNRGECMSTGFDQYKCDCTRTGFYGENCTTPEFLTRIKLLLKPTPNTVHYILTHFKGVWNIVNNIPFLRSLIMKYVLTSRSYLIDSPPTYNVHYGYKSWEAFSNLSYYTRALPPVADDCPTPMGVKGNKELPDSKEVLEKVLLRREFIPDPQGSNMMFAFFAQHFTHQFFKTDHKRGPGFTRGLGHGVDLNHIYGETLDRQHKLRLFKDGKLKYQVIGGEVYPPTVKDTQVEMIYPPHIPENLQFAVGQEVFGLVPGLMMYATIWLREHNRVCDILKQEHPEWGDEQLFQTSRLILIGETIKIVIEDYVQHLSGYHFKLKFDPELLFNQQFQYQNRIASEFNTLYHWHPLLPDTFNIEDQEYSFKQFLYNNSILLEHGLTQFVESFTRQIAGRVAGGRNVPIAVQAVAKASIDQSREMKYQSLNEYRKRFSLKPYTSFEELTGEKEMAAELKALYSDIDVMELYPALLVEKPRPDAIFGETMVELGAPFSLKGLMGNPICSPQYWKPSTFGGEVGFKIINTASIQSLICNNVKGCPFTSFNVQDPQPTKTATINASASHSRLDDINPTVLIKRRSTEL

[2] = molecular target: T2, Prostaglandin G/H synthase 1 (Ovis aries, UniProt P05979); test: Inhibition of ovine COX1 assessed as conversion of [14C]-arachidonic acid to [14C]-prostaglandins preincubated for 17 mins by thin-layer chromatography analysis
T2 sequence (P05979 whole entry): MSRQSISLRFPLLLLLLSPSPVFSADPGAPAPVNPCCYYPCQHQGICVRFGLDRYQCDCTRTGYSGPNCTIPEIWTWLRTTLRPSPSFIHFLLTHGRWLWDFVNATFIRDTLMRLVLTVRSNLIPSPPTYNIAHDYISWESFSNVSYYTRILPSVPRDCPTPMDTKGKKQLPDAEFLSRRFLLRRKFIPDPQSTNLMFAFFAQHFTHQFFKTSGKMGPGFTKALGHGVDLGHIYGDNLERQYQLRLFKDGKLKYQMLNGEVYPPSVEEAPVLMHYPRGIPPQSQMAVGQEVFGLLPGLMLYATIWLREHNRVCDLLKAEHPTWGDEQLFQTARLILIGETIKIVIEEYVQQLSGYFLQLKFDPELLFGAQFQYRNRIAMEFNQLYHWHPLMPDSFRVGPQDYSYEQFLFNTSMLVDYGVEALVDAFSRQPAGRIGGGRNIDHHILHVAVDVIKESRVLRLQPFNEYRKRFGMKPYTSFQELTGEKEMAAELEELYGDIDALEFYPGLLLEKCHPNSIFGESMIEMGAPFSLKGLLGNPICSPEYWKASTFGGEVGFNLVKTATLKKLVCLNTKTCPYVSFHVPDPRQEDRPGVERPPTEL

An IC50 [1] of over 25 µM and an IC50 [2] of over 25 µM were found for COc1ccc2c(c1)c(CC(=O)OC13CC4CC(CC(C4)C1)C3)c(C)n2C(=O)c1ccc(Cl)cc1 in this work.
